Experimental data: patent US6399654B1, “Biflavanoids and derivatives thereof as antiviral agents” (priority 1995, dated 2002)
pEC50, pIC50: −log10 of the molar value. Converted amounts (≈) assume the structure as drawn. Where two headings read alike, the source gives them in different places. Marks after values point to notes of the source that are not given here.

What was measured:
HIV-1 RT = molecular target: T1, HIV-1 RT (Human immunodeficiency virus type 1 group M subtype B, UniProt P03366); assay: Anti-HIV-1 RT assay (recombinant enzyme); format: biochemical
T1 construct: made in house; host or cells: Escherichia coli

[1] = Cytotoxicity in uninfected PHA-stimulated human PBM cells; details: human
human PBM cells = assay: as above
HIV-1 (strain LAV-1) = assay: microbe, parasite or virus in culture; format: cell-based
[2] = tested on: Parainfluenza Type 3 Virus; assay: organism not typed; format: cell-based; details: MA104, read-out: Neutral Red EC50
in vitro [3] = details: African green monkey
Measles Virus [4] = assay: Measles virus neutral red dye uptake in BSC-1 cells; format: cell-based; details: Measles morbillivirus, BSC-1
Influenza B Panama/45/90 [5] = assay: microbe, parasite or virus in culture; format: cell-based; details: Influenza B virus, MDCK; Influenza B Panama/45/90; read-out: CPE Inhibition EC50
[6] = tested on: Madin Darby canine kidney (MDCK) cells; details: dog
[7] = tested on: Parainfluenza Type 3 Virus; assay: organism not typed; format: cell-based; details: MA104, read-out: CPI Inhibition EC50
[8] = tested on: Influenza A (A/NWS/33 (H1N1)); assay: Influenza A virus infection in mice; format: in vivo, BALB/c mice
Protocol: Animals: Female 13-15 g specific pathogen-free BALB/c mice were obtained form Simonsen Laboratories (Gilroy, Calif.). They were quarantined 24 h prior to use, and maintained on Wayne Lab Blox and tap water. After being infected, their drinking water contained 0.006% oxytetracycline (Pfizer, New York, N.Y.) to control possible secondary bacterial infections.
Virus: A/NWS/33 (H1N1) was obtained from K. W. Cochran, Univ. of Michigan (Ann Arbor, Mich.). A virus pool was prepared in MDCK cells; this was titrated in mice, ampuled, and stored at −80° C. until used.
Compounds: Robustaflavone was stored at room temperature until used. Ribavirin, used as a positive control, was obtained from ICN Pharmaceuticals (Costa Mesa, Calif.). Vehicles considered included DMSO (Sigma Chemical Co., St. Louis, Mo.), DMF (Sigma), PEG M. W. 200 (Aldrich Chemical Co. Milwaukee, Wis.), 0.4% CMC (Sigma) and 1-methyl-2-pyrrolidinone (MPD, Aldrich).
Arterial Oxygen Saturation (SaO2) Determinations: SaO2 was determined using the Ohmeda Blox 3740 pulse oximeter (Ohmeda, Louisville, Ohio)). The ear probe attachment was used, the probe placed on the thigh of the animal, with the slow instrument mode selected. Readings were made after a 30 second stabilization time on each animal. Use of this device for measuring effects of influenza virus on arterial oxygen saturation have been described.^72
Lung Virus Determinations: Each mouse lung was homogenized and varying dilutions assayed in triplicate for infectious virus in MDCK cells as described previously.^73
4. Effect of robustaflavone in CMC or in DMSO on influenza virus infection in mice. In the study with CMC, robustaflavone was used in dosages of 200 and 100 mg/kg/day; using DMSO vehicle, the dosages were 75 and 37.5 mg/kg/day, with the compound administered i.p. twice daily for 5 days beginning 4 h pre-virus exposure. The mice were used in each dose to monitor effects on SaO2 and death; from an additional group of similarly infected and treated mice, 3 animals were killed on days 3, 5, 7 and 9 to assay for lung score (0=normal, 4=maximal consolidation), weight, and virus titer. Three to four mice were used as toxicity controls, which were weighed prior to treatment and again 18 h after treatment termination, and deaths noted daily. […] Three sets of virus controls were used: Infected-untreated, infected-treated with CMC only, and infected-treated with DMSO only. Twenty animals were used in each of these control groups to monitor SaO2 and death, with 3 additional mice taken in parallel with treated animals to determine effects on lung consolidation and virus titer. Two sets of normal controls were used; one group of three mice was weighed and held in parallel with the toxicity controls. From the second group three mice were killed on days 3 and 9 for comparison of lung score and weight.
Statistical Evaluation: Increase in survivor number was evaluated using chi square analysis with Yates' correction. Mean survival time increases, virus titer and SaO2 value differences were analyzed by t-test. Lung consolidation scores were evaluated by ranked sum analysis.

in vitro [9] = details: African green monkey; remark: listed apart in the source
Measles Virus [10] = assay: microbe, parasite or virus in culture; format: cell-based; details: Measles morbillivirus, BSC-1, read-out: CPI Inhibition EC50
[11] = tested on: Respiratory Syncytial Virus; assay: microbe, parasite or virus in culture; format: cell-based; details: human respiratory syncytial virus, MA104, read-out: CPE Inhibition EC50
in vitro [12] = details: African green monkey; remark: listed apart in the source
[13] = tested on: Influenza A (H3N2) Beijing/32/92; assay: microbe, parasite or virus in culture; format: cell-based, influenza A virus; details: Influenza A virus, H3N2, MDCK, read-out: Neutral Red EC50
[14] = tested on: Influenza A (H3N2) Beijing/32/92; assay: microbe, parasite or virus in culture; format: cell-based, influenza A virus; details: Influenza A virus, H3N2, MDCK, read-out: CPE Inhibition EC50
[15] = tested on: Influenza A (H1N1) Texas/36/91; assay: microbe, parasite or virus in culture; format: cell-based, influenza A virus; details: Influenza A virus, H1N1, MDCK, read-out: Neutral Red EC50
Influenza B Panama/45/90 [16] = assay: microbe, parasite or virus in culture; format: cell-based; details: Influenza B virus, MDCK, read-out: Neutral Red EC50
[17] = tested on: Respiratory Syncytial Virus; assay: microbe, parasite or virus in culture; format: cell-based; details: human respiratory syncytial virus, MA104; read-out: Neutral Red EC50
[18] = tested on: Influenza A (H1N1) Texas/36/91; assay: microbe, parasite or virus in culture; format: cell-based, influenza A virus; details: Influenza A virus, H1N1, MDCK, read-out: CPE Inhibition EC50
in vitro [19] = details: dog
[20] = CPE Inhibition IC50 (cytotoxic)
[21] = ribavirin in saline, 75 mg/kg/day i.p. bid × 5

**Q.** Which results are given for `O=C1CC(c2ccc(O)cc2)Oc2c1c(O)cc(O)c2C1C(=O)c2c(O)cc(O)cc2OC1c1ccc(O)cc1` (stereo not shown) [GB-1a(13), GB-1a]?
**A.** pIC50 (HIV-1 RT; Anti-HIV-1 RT IC50, values in parentheses or in words): 3.63; pIC50 (HIV-1 RT; HIV-1 RT IC50 (50% inhibition dose)): 3.63; inhibition at 200 µg/mL (HIV-1 RT; read-out: Anti-HIV-1 RT % Inhibition at 200 μg/ml): 86%; pIC50 [1]: 4.06; toxicity against uninfected PHA-stimulated human PBM cells (in words) (human PBM cells): high toxicity; anti-HIV-1 activity in PBM cells (in words) (HIV-1 (strain LAV-1)): good activity; pEC50 (HIV-1 (strain LAV-1); Human immunodeficiency virus 1, PBMC, human PBM cells infected with HIV-1 (strain LAV), read-out: Ant-HIV-1 in PBM cells EC50): 4.42; Selective Index (SI) (HIV-1 (strain LAV-1); PBM cells): 2.3

**Q.** What does the source list for `NC(=O)c1ncn([C@@H]2O[C@H](CO)[C@@H](O)[C@H]2O)n1` [Ribavirin, ribavirin, reference compound]?
**A.** EC50 [2]: 17 µg/mL (≈ 69.6 µM); IC50 (in vitro [3]; [20]): 120 µg/mL (≈ 491 µM); IC50 (in vitro [3]; CPI Inhibition IC50 (cytotoxic)): 245 µg/mL (≈ 1000 µM); EC50 (Measles Virus [4]): 1 µg/mL (≈ 4.09 µM); EC50 (Influenza B Panama/45/90 [5]): 1.5 µg/mL (≈ 6.14 µM); CPE Inhibition IC50 (cytotoxic) [6]: >1000 µg/mL; EC50 [7]: 25 µg/mL (≈ 102 µM); inhibition of the infection, in words ([8]; ribavirin 75 mg/kg/day, positive control): highly active; Infected, Treated MST [8, 21]: >21.0** days; Infected, Treated Mean SaO2 [8, 21]: 87.1** %; Infected, Treated Surv/Total [8, 21]: 10/10**; IC50 (in vitro [9]): 150 µg/mL (≈ 614 µM); EC50 (Measles Virus [10]): 3 µg/mL (≈ 12.3 µM); EC50 [11]: 12 µg/mL (≈ 49.1 µM); IC50 (in vitro [12]): 150 µg/mL (≈ 614 µM); EC50 [13]: 5.7 µg/mL (≈ 23.3 µM); EC50 [14]: 4.1 µg/mL (≈ 16.8 µM); EC50 [15]: 1.4 µg/mL (≈ 5.73 µM); EC50 (Influenza B Panama/45/90 [16]): 0.48 µg/mL (≈ 1.97 µM); EC50 [17]: 6 µg/mL (≈ 24.6 µM); EC50 [18]: 1.9 µg/mL (≈ 7.78 µM); IC50 (in vitro [19]; CPE Inhibition IC50 (50% cell inhibitory (cytotoxic) concentration)): 562 µg/mL (≈ 2300 µM); IC50 (in vitro [19]; [20]): 562 µg/mL (≈ 2300 µM)
